# Assay results from patent US20060069132A1, “Azolecarboxamide herbicides” (priority 2004, published 2006).
# Key:
# barnyardgrass [1] = assay: Test A pre-/postemergence herbicide test; assay type: in vivo, Echinochloa crus-galli
# Method in brief: (§1)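 Plants are held in greenhouse about ten days after treatment, then compared with untreated controls and scored 0 (no effect) to 100 (complete control). Preemergence dosing is a directed soil spray on sown sandy loam; postemergence dosing is spray to runoff at 2–10 cm height.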
# large crabgrass [2] = assay: Test A pre-/postemergence herbicide test; assay type: in vivo, Digitaria sanguinalis
# Method in brief: as §1
# giant foxtail [3] = assay: Test A pre-/postemergence herbicide test; assay type: in vivo, Setaria faberi
# Method in brief: as §1
# morningglory [4] = assay: Test A pre-/postemergence herbicide test; assay type: in vivo, Ipomoea spp.
# Method in brief: as §1
# redroot pigweed = assay: Test A pre-/postemergence herbicide test; assay type: in vivo, Amaranthus retroflexus
# Method in brief: as §1
# velvetleaf [5] = assay: Test A pre-/postemergence herbicide test; assay type: in vivo, Abutilon theophrasti
# Method in brief: as §1
# barnyardgrass [6] = assay: Test B pre-/postemergence herbicide test; assay type: in vivo, Echinochloa crus-galli; conditions: for Barnyardgrass plant response rating: postemergence, visual rating, scale 0 (no effect) to 100 (complete control)
# Method in brief: (§2)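 Response was scored visually 13 to 15 days after treatment against untreated greenhouse controls, 0 meaning no effect and 100 complete control. Formulations (solvent mixture plus surfactant) went onto soil after planting, onto foliage of 1- to 4-leaf plants, and onto 2-leaf plants in a flooded paddy set including rice and barnyardgrass.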
# Surinam grass = assay: Test B pre-/postemergence herbicide test; assay type: in vivo, Urochloa decumbens; conditions: for Surinam Grass plant response rating: postemergence, visual rating, scale 0 (no effect) to 100 (complete control)
# Method in brief: (§3)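 Evaluation is visual, comparing treated with control plants on a scale where 0 means no effect and 100 means full control. Treatments were preemergence, or postemergence on seedlings 2–18 cm tall, and held 13–15 days in the greenhouse.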
# cocklebur = assay: Test B pre-/postemergence herbicide test; assay type: in vivo, Xanthium strumarium; conditions: for Cocklebur plant response rating: postemergence, visual rating, scale 0 (no effect) to 100 (complete control)
# Method in brief: as §2
# corn = assay: Test B pre-/postemergence herbicide test; assay type: in vivo, Zea mays; conditions: for Corn plant response rating: postemergence, visual rating, scale 0 (no effect) to 100 (complete control)
# Method in brief: as §3
# large crabgrass [7] = assay: Test B pre-/postemergence herbicide test; assay type: in vivo, Digitaria sanguinalis; conditions: for Crabgrass, Large plant response rating: postemergence, visual rating, scale 0 (no effect) to 100 (complete control)
# Method in brief: as §3
# giant foxtail [8] = assay: Test B pre-/postemergence herbicide test; assay type: in vivo, Setaria faberi; conditions: for Foxtail, Giant plant response rating: postemergence, visual rating, scale 0 (no effect) to 100 (complete control)
# Method in brief: as §3
# lambsquarters = assay: Test B pre-/postemergence herbicide test; assay type: in vivo, Chenopodium album; conditions: for Lambsquarters plant response rating: postemergence, visual rating, scale 0 (no effect) to 100 (complete control)
# Method in brief: as §3
# morningglory [9] = assay: Test B pre-/postemergence herbicide test; assay type: in vivo, Ipomoea coccinea; conditions: for Morningglory plant response rating: postemergence, visual rating, scale 0 (no effect) to 100 (complete control)
# Method in brief: as §2
# pigweed = assay: Test B pre-/postemergence herbicide test; assay type: in vivo, Amaranthus retroflexus; conditions: for Pigweed plant response rating: postemergence, visual rating, scale 0 (no effect) to 100 (complete control)
# Method in brief: as §3
# velvetleaf [10] = assay: Test B pre-/postemergence herbicide test; assay type: in vivo, Abutilon theophrasti; conditions: for Velvetleaf plant response rating: postemergence, visual rating, scale 0 (no effect) to 100 (complete control)
# Method in brief: as §3
# blackgrass = assay: Test B postemergence herbicide test; assay type: in vivo, Alopecurus myosuroides; conditions: postemergence, visual rating, scale 0 (no effect) to 100 (complete control)
# Method in brief: (§4)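 Visual control ratings, 0–100 versus untreated controls, taken after 13 to 15 days in the greenhouse. Blackgrass received a postemergence spray at the 1- to 4-leaf stage (2–18 cm); ducksalad, umbrella sedge and barnyardgrass were flooded-paddy treated at 2 leaves.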
# wheat = assay: Test B postemergence herbicide test; assay type: in vivo, Triticum aestivum; design: key to Wheat plant response rating: 0 = no effect, 100 = complete control; conditions: postemergence, visual rating, scale 0 (no effect) to 100 (complete control)
# Method in brief: (§5)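 After treating 2-leaf paddy plants or 2–18 cm postemergence plants (1 to 4 leaves) with formulated chemical, researchers kept them in a greenhouse for 13–15 days. Effects were judged visually versus controls: 0 indicates none, 100 total control.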
# wild oat = assay: Test B postemergence herbicide test; assay type: in vivo, Avena fatua; conditions: postemergence, visual rating, scale 0 (no effect) to 100 (complete control)
# Method in brief: as §5
# rice = assay: Test B flooded paddy test; assay type: in vivo, Oryza sativa; conditions: 1000 g ai/ha, visual rating, scale 0 to 100 (0 no effect, 100 complete control), 13 to 15 days
# Method in brief: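 Each value is a visual 0–100 response rating taken against controls 13 to 15 days after treatment in the greenhouse. Plants received formulated chemical postemergence at the 1- to 4-leaf stage or, in flooded paddy, at the 2-leaf stage.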
# [11] = system: small flower umbrella sedge; assay: Test B flooded paddy test; assay type: in vivo, Cyperus difformis; conditions: 1000 g ai/ha, visual rating, scale 0 to 100 (0 no effect, 100 complete control), 13 to 15 days
# Method in brief: as §4
# ducksalad = assay: Test B flooded paddy test; assay type: in vivo, Heteranthera limosa; conditions: 1000 g ai/ha, visual rating, scale 0 to 100 (0 no effect, 100 complete control), 13 to 15 days
# Method in brief: as §4
# barnyardgrass [12] = assay: Test B flooded paddy test; assay type: in vivo, Echinochloa crus-galli; conditions: 1000 g ai/ha, visual rating, scale 0 to 100 (0 no effect, 100 complete control), 13 to 15 days
# Method in brief: as §4
# [13] = Postemergence, 500 g ai/ha, 0 to 100 scale, 0 no effect, 100 complete control
# [14] = Postemergence, 2000 g ai/ha, 0 to 100 scale, 0 no effect, 100 complete control
# [15] = Preemergence, 2000 g ai/ha, visual rating, 0 to 100 scale (0 no effect, 100 complete control)
# [16] = preemergence, 500 g ai/ha, visual injury, 0 to 100 scale (0 no effect, 100 complete control)
# [17] = 125 g ai/ha, 0 = no effect, 100 = complete control, preemergence
# [18] = 500 g ai/ha, visual rating 0-100, 0 no effect, 100 complete control, preemergence
smiles,measurement,setting,value
CC(=NO)c1cccc(NC(=O)c2cn(C(C)C)nc2C)c1 [Compound 180],Barnyardgrass plant response rating,barnyardgrass [1]; [13],20
same,"Plant response rating, Barnyardgrass",barnyardgrass [1]; [14],30
same,Barnyardgrass plant response rating,barnyardgrass [1]; [15],0
same,Barnyardgrass plant response rating,barnyardgrass [1]; [16],0
same,"Crabgrass, Large plant response rating",large crabgrass [2]; [13],20
same,"Plant response rating, Crabgrass, Large",large crabgrass [2]; [14],35
same,"Crabgrass, Large plant response rating",large crabgrass [2]; [15],50
same,"Crabgrass, Large plant response rating",large crabgrass [2]; [16],10
same,"Foxtail, Giant plant response rating",giant foxtail [3]; [13],15
same,"Plant response rating, Foxtail, Giant",giant foxtail [3]; [14],20
same,"Foxtail, Giant plant response rating",giant foxtail [3]; [15],10
same,"Foxtail, Giant plant response rating",giant foxtail [3]; [16],0
same,Morningglory plant response rating,morningglory [4]; [13],10
same,"Plant response rating, Morningglory",morningglory [4]; [14],15
same,Morningglory plant response rating,morningglory [4]; [15],10
same,Morningglory plant response rating,morningglory [4]; [16],0
same,Pigweed plant response rating,redroot pigweed; [13],30
same,"Plant response rating, Pigweed",redroot pigweed; [14],95
same,Pigweed plant response rating,redroot pigweed; [15],90
same,Pigweed plant response rating,redroot pigweed; [16],0
same,Velvetleaf plant response rating,velvetleaf [5]; [13],10
same,"Plant response rating, Velvetleaf",velvetleaf [5]; [14],15
same,Velvetleaf plant response rating,velvetleaf [5]; [15],15
same,Velvetleaf plant response rating,velvetleaf [5]; [16],0
same,Barnyardgrass plant response rating (0 to 100 scale),barnyardgrass [6]; [17],0
same,"Plant response rating, Barnyardgrass",barnyardgrass [6]; [18],0
same,Barnyardgrass plant response rating,barnyardgrass [6]; 125 g ai/ha,0
same,Barnyardgrass plant response rating,barnyardgrass [6]; 500 g ai/ha,0
same,Surinam Grass plant response rating (0 to 100 scale),Surinam grass; [17],0
same,"Plant response rating, Surinam Grass",Surinam grass; [18],0
same,Surinam Grass plant response rating,Surinam grass; 125 g ai/ha,0
same,Surinam Grass plant response rating,Surinam grass; 500 g ai/ha,0
same,Cocklebur plant response rating (0 to 100 scale),cocklebur; [17],0
same,"Plant response rating, Cocklebur",cocklebur; [18],0
same,Cocklebur plant response rating,cocklebur; 125 g ai/ha,0
same,Cocklebur plant response rating,cocklebur; 500 g ai/ha,0
same,Corn plant response rating (0 to 100 scale),corn; [17],0
same,"Plant response rating, Corn",corn; [18],0
same,Corn plant response rating,corn; 125 g ai/ha,0
same,Corn plant response rating,corn; 500 g ai/ha,0
same,"Crabgrass, Large plant response rating (0 to 100 scale)",large crabgrass [7]; [17],0
same,"Plant response rating, Crabgrass, Large",large crabgrass [7]; [18],0
same,"Crabgrass, Large plant response rating",large crabgrass [7]; 125 g ai/ha,0
same,"Crabgrass, Large plant response rating",large crabgrass [7]; 500 g ai/ha,0
same,"Foxtail, Giant plant response rating (0 to 100 scale)",giant foxtail [8]; [17],0
same,"Plant response rating, Foxtail, Giant",giant foxtail [8]; [18],0
same,"Foxtail, Giant plant response rating",giant foxtail [8]; 125 g ai/ha,0
same,"Foxtail, Giant plant response rating",giant foxtail [8]; 500 g ai/ha,0
same,Lambsquarters plant response rating (0 to 100 scale),lambsquarters; [17],0
same,"Plant response rating, Lambsquarters",lambsquarters; [18],0
same,Lambsquarters plant response rating,lambsquarters; 125 g ai/ha,0
same,Lambsquarters plant response rating,lambsquarters; 500 g ai/ha,0
same,Morningglory plant response rating (0 to 100 scale),morningglory [9]; [17],0
same,"Plant response rating, Morningglory",morningglory [9]; [18],0
same,Morningglory plant response rating,morningglory [9]; 125 g ai/ha,0
same,Morningglory plant response rating,morningglory [9]; 500 g ai/ha,0
same,Pigweed plant response rating (0 to 100 scale),pigweed; [17],0
same,"Plant response rating, Pigweed",pigweed; [18],0
same,Pigweed plant response rating,pigweed; 125 g ai/ha,0
same,Pigweed plant response rating,pigweed; 500 g ai/ha,0
same,Velvetleaf plant response rating (0 to 100 scale),velvetleaf [10]; [17],0
same,"Plant response rating, Velvetleaf",velvetleaf [10]; [18],0
same,Velvetleaf plant response rating,velvetleaf [10]; 125 g ai/ha,0
same,Velvetleaf plant response rating,velvetleaf [10]; 500 g ai/ha,0
same,Blackgrass plant response rating,blackgrass; 125 g ai/ha,0
same,Blackgrass plant response rating,blackgrass; 500 g ai/ha,0
same,Wheat plant response rating,wheat; 125 g ai/ha,0
same,Wheat plant response rating,wheat; 500 g ai/ha,0
same,"Oat, Wild plant response rating",wild oat; 125 g ai/ha,0
same,"Oat, Wild plant response rating",wild oat; 500 g ai/ha,0
same,Rice plant response rating,rice,0
same,"Sedge, Umbrella plant response rating",[11],0
same,Ducksalad plant response rating,ducksalad,20
same,Barnyardgrass plant response rating,barnyardgrass [12],20
